Laboratory results taken from patent US9724408B2, “Compositions and methods for activating stimulator of interferon gene-dependent signalling” (ADURO BIOTECH, INC., priority 2013, dated 2017).

Assays:
[1] = system: CT26 colon carcinoma cells; assay: CT26 colon carcinoma flank tumor model, intratumoral CDN; assay type: in vivo, BALB/c mice; conditions: for complete inhibition of tumor growth of established CT26 tumors: every three days, three injections, 8 mice per group, FIG. 19B
Protocol: Either CT26 colon carcinoma cells (1×10^5 cells in 100 μL PBS) or 4T1 mammary carcinoma cells (1×10^5 cells in 100 μL PBS) were implanted subcutaneously on the flanks of 6-8 week old female BALB/c mice (8 mice per group). Treatments began when tumors reached a volume of approximately 75 mm^3, which was approximately day 14 post tumor implantation. The compounds Rp, Rp dithio cyclic [A(2′,5′)pA(3′,5′)p] (ML RR-CDA) or Rp, Rp dithio cyclic [G(2′,5′)pG(3′,5′)p] (ML RR-CDG) compounds (25 μg in a total volume of 40 μL HBSS), or HBSS vehicle control, and Rp, Rp dithio cyclic [A(2′,5′)pA(3′,5′)p] (ML RR-CDA) (50 μg in a total volume of 40 μL HBSS) or HBSS vehicle control, were administered by subcutaneous injection into the center of the tumor using a 27 gauge needle. Injections were repeated every three days, for a total of three intratumoral injections.
To determine whether the synthetic derivative CDN molecules elicit durable and effective anti-tumor T-cell immunity, 6-8 week old female BALB/c mice (8 mice per group) were implanted with CT26 colon carcinoma cells (1×10^5 cells in 100 μL PBS). Mice were treated with Rp, Rp dithio cyclic [A(2′,5′)pA(3′,5′)p] (ML RR-CDA) compound ([…] in a total volume of 40 μL HBSS) or HBSS vehicle control, and tumor growth was monitored as per previous example. Mice were bled on day 18 post tumor implantation and PBMCs were isolated by Ficoll gradient (Miltenyi Biotech). 5×10^4 PBMCs were stimulated overnight in an IFNγ ELISpot assay with media alone (unstimulated), or with 1 μM of the endogenous H-2 L^d-restricted tumor rejection antigen AH1 peptide in the presence of 1×10^5 naïve splenocytes as feeder cells. IFN-γ ELISpot plates were developed and quantified using a CTL plate reader and ImmunoSpot software. On day 55 post tumor implantation, surviving mice and age-matched naïve control mice were implanted on the contralateral flank with either CT26 or 4T1 (both 1×10^5 cells in 100 μL PBS) tumor cells (4 mice per group), and monitored for tumor growth.

THP1-Blue™ ISG cells = assay: Type I interferon induction in THP1-Blue ISG reporter cells (QUANTI-Blue, A655); assay type: cell-based, human; conditions: for IFN-β levels: 50 μM for 30 minutes, supernatants after overnight incubation, FIG. 10
Protocol: To determine the relative level of type I interferon induced in human cells by each of the native and derivative molecules as a signature of adjuvant potency, 4×10^5 THP1-Blue™ ISG cells (a human monocyte cell line transfected with an IRF-inducible secreted embryonic alkaline phosphatase reporter gene (Invivogen) which express alkaline phosphatase under the control of a promoter comprised of five IFN-stimulated response elements) were incubated with 100 μM of cyclic [G(3′,5′)pG(3′,5′)p] (CDG), cyclic [G(2′,5′)pG(3′,5′)p] (mixed linkage, or ML-CDG), or HBSS for 30 minutes at 37° C. with 5% CO2. After 30 minutes, cells were washed and plated in 96-well dish in RPMI media containing 10% FBS, and incubated at 37° C. with 5% CO2. Cell culture supernatants from each sample were collected after overnight incubation, and 20 μL of the cell culture supernatants was added to 180 μL QUANTI-Blue reagent (Invivogen) and incubated for 45 minutes to evaluate type I interferon protein levels. Readings at Absorbance 655 nm were taken every 3 minutes using a Versa Max kinetic spectrophotometer (Molecular Diagnostics).
[…]. After 30 minutes, cells were washed and plated in 96-well dish in RPMI media containing 10% FBS, and incubated at 37° C. with 5% CO2. Cell culture supernatants from each sample were collected after overnight incubation, and 20 μL of the cell culture supernatants was added to 180 μL QUANTI-Blue reagent (Invivogen) and incubated for 45 minutes. Readings at Absorbance 655 nm were taken at 15 minutes using a SpectraMax spectrophotometer (Molecular Diagnostics).
The induction of type I interferon in human cells was measured to evaluate the potency of untreated and phosphodiesterase-treated oxo, Rp monothio and Rp, Rp dithio derivatives. […]. After 30 minutes, cells were washed and plated in a 96-well dish in RPMI media containing 10% FBS, and incubated at 37° C. with 5% CO2. Cell culture supernatants from each sample were collected after 16 hr incubation, and 20 μL of the cell culture supernatants was added to 180 μL QUANTI-Blue reagent (Invivogen) and incubated for 25 minutes to evaluate type I interferon protein levels. Readings at Absorbance 655 nm were measured with a Versa Max spectrophotometer (Molecular Diagnostics).

B16 melanoma cells [2] = assay: B16 melanoma subcutaneous tumor model, intratumoral CDN; assay type: in vivo, C57BL/6 mice; conditions: 25 μg intratumoral, three injections, FIG. 18; for anti-tumor efficacy (tumor volume): every three days
Protocol: To assess the ability of the derivative molecules to promote anti-tumor immunity, B16 melanoma cells (5×10^4 cells in 100 μL PBS) were implanted subcutaneously on the lower back of 6-8 week old female C57BL/6 mice (8 mice per group). Treatments began when tumors reached a volume of approximately 75 mm^3, on day 14 post tumor implantation. The CDN compounds were administered (25 μg in a total volume of 40 μL HBSS) by subcutaneous injection into the center of the tumor using a 27 gauge needle. Injections were repeated every three days, for a total of three intratumoral injections. The CDNs tested were cyclic [G(3′,5′)pG(3′,5′)p] (CDG); cyclic [G(2′,5′)pG(3′,5′)p] (mixed linkage, or ML CDG); Rp, Rp dithio cyclic [G(2′,5′)pG(3′,5′)p] (ML RR-CDG); cyclic [A(3′,5′)pA(3′,5′)p] (CDA); cyclic [A(2′,5′)pA(3′,5′)p] (mixed linkage, or ML CDA); and Rp, Rp dithio cyclic [A(2′,5′)pA(3′,5′)p] (ML RR-CDA).
(§1) To determine whether the effects of the derivative molecules are STING-dependent, B16 melanoma cells (5×10^4 cells in 100 μL PBS) were implanted on the right flanks of 6-8 week old female goldenticket STING^−/− mice, or wild-type C57BL/6 control mice (5 mice per group). Treatments began when tumors reached a volume of approximately 75 mm^3, on day 14 post tumor implantation. The compounds administered were Rp, Rp dithio cyclic [G(2′,5′)pG(3′,5′)p] (ML RR-CDG) (25 μg in a total volume of 40 μL HBSS), Rp, Rp dithio cyclic [A(2′,5′)pA(3′,5′)p] (ML RR-CDA) (50 μg in a total volume of 40 μL HBSS), the TLR9 agonist CpG 1668 (50 μg in a total volume of 40 μL HBSS), or HBSS vehicle control. Mice were treated by subcutaneous injection into the center of tumor only using a 27 gauge needle. Injections were repeated every three days, for a total of three intratumoral injections.

B16 melanoma cells [3] = assay: B16 melanoma tumor model in STING-deficient mice, intratumoral CDN; assay type: in vivo, goldenticket STING−/− mice; conditions: ML RR-CDG 25 μg, ML RR-CDA 50 μg, CpG 1668 50 μg, three injections, FIG. 20B
Protocol: as §1

| SMILES | rejection of established CT26 colon carcinomas ([1]; 50 mg in a total volume of 40 μL HBSS, FIG. 21A) | complete inhibition of tumor growth of established CT26 tumors [1] | IFN-β levels (THP1-Blue™ ISG cells) | induction of type I interferon, untreated compounds (THP1-Blue™ ISG cells; 50 μM, mock treated, 16 hr incubation, FIG. 12) | anti-tumor efficacy (tumor volume) (B16 melanoma cells [2]) | tumor rejection (B16 melanoma cells [2]; P=0.0004, student's t-test) | tumor growth in STING−/− mice (B16 melanoma cells [3]) | tumor status by day 44 post tumor implantation (B16 melanoma cells [2]) |
| --- | --- | --- | --- | --- | --- | --- | --- | --- |
| Nc1ncnc2c1ncn2[C@@H]1O[C@@H]2COP(O)(=S)O[C@@H]3C(O)[C@@H](COP(O)(=S)O[C@H]2[C@H]1O)O[C@H]3n1cnc2c(N)ncnc21 (stereo partly drawn) [ML RR-CDA, dithio-[RP, RP]-cyclic-[A(2′,5′)pA(3′,5′)p]] | all mice treated with ML RR-CDA rejected the growth of established CT26 colon carcinomas | completely inhibited tumor growth of all established CT26 tumors | significantly higher IFN-β levels that either the unmodified CDA or ML CDA molecules | more potent inducers of type I interferon than the oxo | potent anti-tumor efficacy | significantly more tumor rejection than the ML CDA derivative | not inhibited |  |
| Nc1nc2c(ncn2[C@@H]2O[C@@H]3CO[P@@](O)(=S)O[C@@H]4[C@H](O)[C@@H](CO[P@@](O)(=S)O[C@H]3[C@H]2O)O[C@H]4n2cnc3c(=O)[nH]c(N)nc32)c(=O)[nH]1 [ML RR-CDG, dithio-[RP,RP]-cyclic-[G(2′,5′)pG(3′,5′)p]] |  | 7 out of 8 | significantly higher levels of IFN-β than the unmodified cyclic c-di-GMP (CDG) or modified CDG molecules |  | potent anti-tumor efficacy |  | not inhibited | mice remained nearly tumor-free |
